Counter-ions that a name gives are not always drawn.

For orientation: IC50 means the concentration that inhibits the measured activity by half.

The target in this assay is T1, BACE1 (Homo sapiens, UniProt P56817).
T1 construct: Human HEK293 cells which are stably transfected with a vector expressing a cDNA of the human APP wt gene (APP695); endogenous in cells; host or cells: HEK293 cells stably expressing human APP695 wt
The assay can be described thus: Cellular Aβ-lowering assay a) (Aβ40 ELISA, HEK293 APP cells). It counts as cell-based. The note with it: cellular assay a): HEK293 APP695 cells, 18-20 hrs incubation, read-out: BACE1 cell act. Aβ40 IC50. The method, then: Cellular Aβ-Lowering Assay:
a) Human HEK293 cells which are stably transfected with a vector expressing a cDNA of the human APP wt gene (APP695) were used to assess the potency of the compounds in a cellular assay. The cells were seeded in 96-well microtiter plates in cell culture medium (Iscove, plus 10% (v/v) fetal bovine serum, glutamine, penicillin/streptomycin) to about 80% confluence and the compounds were added at a 10× concentration in 1/10 volume of medium without FCS containing 8% DMSO (final concentration of DMSO was kept at 0.8% v/v). After 18-20 hrs incubation at 37° C. and 5% CO2 in a humidified incubator the culture supernatant was harvested for the determination of Aβ40 concentrations. 96 well ELISA plates (e.g., Nunc MaxiSorb) were coated with monoclonal antibody which specifically recognize the C-terminal end of Aβ40 (Brockhaus et al., NeuroReport 9, 1481-1486; 1998). After blocking of non-specific binding sites with e.g. 1% BSA and washing, the culture supernatants were added in suitable dilutions together with a horseradish peroxidase-coupled Aβ detection antibody (e.g., antibody 4G8, Senetek, Maryland Heights, Mo.) and incubated for 5 to 7 hrs. Subsequently the wells of the microtiter plate were washed extensively with Tris-buffered saline containing 0.05% Tween 20 and the assay was developed with tetramethylbenzidine/H2O2 in citric acid buffer. After stopping the reaction with one volume 1 NH2SO4 the reaction was measured in an ELISA reader at 450 nm wavelength. The concentrations of Aβ in the culture supernatants were calculated from a standard curve obtained with known amounts of pure Aβ peptide.
A general note: In an ELISA, binding on a coated surface is turned into a signal by an enzyme label.

T1 sequence (P56817 46-501): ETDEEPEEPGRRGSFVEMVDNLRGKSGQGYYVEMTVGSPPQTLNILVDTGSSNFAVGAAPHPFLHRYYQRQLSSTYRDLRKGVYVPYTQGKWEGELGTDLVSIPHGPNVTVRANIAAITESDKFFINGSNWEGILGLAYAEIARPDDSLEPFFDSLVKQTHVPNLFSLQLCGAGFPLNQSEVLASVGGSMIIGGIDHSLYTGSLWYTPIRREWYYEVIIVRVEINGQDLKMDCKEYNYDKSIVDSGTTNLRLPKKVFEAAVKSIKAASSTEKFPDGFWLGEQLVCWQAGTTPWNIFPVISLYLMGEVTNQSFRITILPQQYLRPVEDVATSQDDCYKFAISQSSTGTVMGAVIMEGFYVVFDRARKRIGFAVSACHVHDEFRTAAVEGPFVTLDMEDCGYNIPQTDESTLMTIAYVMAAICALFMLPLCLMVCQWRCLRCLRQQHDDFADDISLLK

Regarding `C[C@]1(c2cc(NC3COC3)ccc2F)N=C(N)OCC1(F)F` [Example 29, (R)-5,5-Difluoro-4-[2-fluoro-5-(oxetan-3-ylamino)-phenyl]-4-methyl-5,6-dihydro-4H-[1,3]oxazin-2-ylamine], the IC50 worked out at 1.96 µM.
With `C[C@]1(c2cccc(OCc3ccc(Cl)cc3)c2)N=C(N)OCC1(F)F` [Example 35, (R)-4-[3-(4-Chloro-benzyloxy)-phenyl]-5,5-difluoro-4-methyl-5,6-dihydro-4H-[1,3]oxazin-2-ylamine] the figure was 4 µM; with `C[C@]1(c2cc(NC3CCOC3)ccc2F)N=C(N)OCC1(F)F` (mixture of isomers) [Example 26, (R)-5,5-Difluoro-4-{2-fluoro-5-[(RS)-(tetrahydro-furan-3-yl)amino]-phenyl}-4-methyl-5,6-dihydro-4H-[1,3]oxazin-2-ylamine], 0.4 µM.
For the compound `CC1(C)OC(N)=N[C@](C)(c2cc(-c3cncc(Cl)c3)ccc2F)C1(F)F` [Example 50, (R)-4-[5-(5-Chloro-pyridin-3-yl)-2-fluoro-phenyl]-5,5-difluoro-4,6,6-trimethyl-5,6-dihydro-4H-[1,3]oxazin-2-ylamine Hydrochloride], the IC50 was found to be 9.08 µM.
As for `C[C@@]1(c2cc(NC3CCCC3)ccc2F)CCOC(N)=N1` [Example 2, (S)-4-(5-Cyclopentylamino-2-fluoro-phenyl)-4-methyl-5,6-dihydro-4H-[1,3]oxazin-2-ylamine], the IC50 amounted to 0.34 µM.
As for `CC1(CNc2ccc(F)c([C@@]3(C)N=C(N)OCC3(F)F)c2)COC1` [Example 24, (R)-5,5-Difluoro-4-{2-fluoro-5-[(3-methyl-oxetan-3-ylmethyl)-amino]-phenyl}-4-methyl-5,6-dihydro-4H-[1,3]oxazin-2-ylamine], the figure is 0.3 µM.
`CC(Nc1ccc(F)c([C@@]2(C)N=C(N)OCC2(F)F)c1)c1cc(C2CC2)on1` (mixture of isomers) [Example 20, (R)-4-{5-[(RS)-1-(5-Cyclopropyl-isoxazol-3-yl)-ethylamino]-2-fluoro-phenyl}-5,5-difluoro-4-methyl-5,6-dihydro-4H-[1,3]oxazin-2-ylamine]: the IC50 was found to be 2 µM.
As for `C#CCNC(=O)c1ccc(F)c([C@@]2(C)N=C(N)OCC2(F)F)c1` [Example 41, 3-((R)-2-Amino-5,5-difluoro-4-methyl-5,6-dihydro-4H-[1,3]oxazin-4-yl)-4-fluoro-N-prop-2-ynyl-benzamide], the figure is 6.62 µM.
For `Cc1ccc(Cc2nc3ccc([C@@]4(C)N=C(N)OCC4(F)F)cc3[nH]2)cc1` [Example 37, (R)-5,5-Difluoro-4-methyl-4-[2-(4-methyl-benzyl)-3H-benzoimidazol-5-yl]-5,6-dihydro-4H-[1,3]oxazin-2-ylamine], the IC50 was 0.3 µM.
For `C[C@]1(c2cc(NCC3CCOC3)ccc2F)N=C(N)OCC1(F)F` (mixture of isomers) [Example 30, (R)-5,5-Difluoro-4-{2-fluoro-5-{[(RS)-1-(tetrahydro-furan-3-yl)methyl]-amino}-phenyl}-4-methyl-5,6-dihydro-4H-[1,3]oxazin-2-ylamine], the half-maximal inhibitory concentration (IC50) is 2.16 µM.
In the case of `CC1(C)OC(N)=N[C@](C)(c2cc(Nc3ccccc3Cl)ccc2F)C1(F)F` [Example 42, (R)-4-[5-(2-Chloro-phenylamino)-2-fluoro-phenyl]-5,5-difluoro-4,6,6-trimethyl-5,6-dihydro-4H-[1,3]oxazin-2-ylamine], the IC50 is 1.47 µM.
With `C[C@]1(c2cccc(OCc3ccc(C#N)cc3)c2)N=C(N)OCC1(F)F` [Example 34, 4-[3-((R)-2-Amino-5,5-difluoro-4-methyl-5,6-dihydro-4H-[1,3]oxazin-4-yl)-phenoxymethyl]-benzonitrile] the figure was 1.4 µM; with `C[C@]1(c2cccc(OCc3ccc(C(F)(F)F)cc3)c2)N=C(N)OCC1(F)F` [Example 36, (R)-5,5-Difluoro-4-methyl-4-[3-(4-trifluoromethyl-benzyloxy)-phenyl]-5,6-dihydro-4H-[1,3]oxazin-2-ylamine], 7.74 µM.
For the compound `CC(Nc1ccc(F)c([C@@]2(C)N=C(N)OCC2(F)F)c1)c1nn(CC(F)F)cc1Cl` (mixture of isomers) [Example 19, (R)-4-(5-{(RS)-1-[4-Chloro-1-(2,2-difluoro-ethyl)-1H-pyrazol-3-yl]-ethylamino}-2-fluoro-phenyl)-5,5-difluoro-4-methyl-5,6-dihydro-4H-[1,3]oxazin-2-ylamine], the half-maximal inhibitory concentration (IC50) came to 1.8 µM.
As for `C[C@]1(c2cc(-c3cnn(-c4ccc(F)cc4)c3)ccc2F)N=C(N)OC[C@@H]1F` [Example 10, (4R,5R)-5-Fluoro-4-{2-fluoro-5-[1-(4-fluoro-phenyl)-1H-pyrazol-4-yl]-phenyl}-4-methyl-5,6-dihydro-4H-[1,3]oxazin-2-ylamine Hydrochloride], the figure is 0.36 µM.
On to `C[C@]1(c2cc(NC3CS(=O)(=O)c4ccccc43)ccc2F)N=C(N)OCC1(F)F` (mixture of isomers) [Example 28, (R)-4-[5-((RS)-1,1-Dioxo-2,3-dihydro-1H-1λ6-benzo[b]thiophen-3-ylamino)-2-fluoro-phenyl]-5,5-difluoro-4-methyl-5,6-dihydro-4H-[1,3]oxazin-2-ylamine], for which the IC50 stood at 1.63 µM.
As for `C[C@]1(c2cc(NC3CCCc4cc(C#N)cnc43)ccc2F)N=C(N)OCC1(F)F` (mixture of isomers) [Example 27, (RS)-8-[3-((R)-2-Amino-5,5-difluoro-4-methyl-5,6-dihydro-4H-[1,3]oxazin-4-yl)-4-fluoro-phenylamino]-5,6,7,8-tetrahydro-quinoline-3-carbonitrile], the IC50 was found to be 0.46 µM.
With `C[C@]1(c2cc3c(cc2F)OCC(c2ccc(Cl)cn2)N3)N=C(N)OCC1(F)F` (mixture of isomers) [Example 38, (R)-4-[(RS)-3-(5-Chloro-pyridin-2-yl)-7-fluoro-3,4-dihydro-2H-benzo[1,4]oxazin-6-yl]-5,5-difluoro-4-methyl-5,6-dihydro-4H-[1,3]oxazin-2-ylamine] the figure was 5.46 µM.
As to `C[C@]1(c2cc(NCc3ccsc3)ccc2F)N=C(N)OC[C@@H]1F` [Example 6, (4R,5R)-5-Fluoro-4-{2-fluoro-5-[(thiophen-3-ylmethyl)-amino]-phenyl}-4-methyl-5,6-dihydro-4H-[1,3]oxazin-2-ylamine], the IC50 came out at 0.66 µM.
As for `CC(Nc1ccc(F)c([C@@]2(C)N=C(N)OCC2(F)F)c1)c1nn(C)cc1Cl` (mixture of isomers) [Example 18, (R)-4-{5-[(RS)-1-(4-Chloro-1-methyl-1H-pyrazol-3-yl)-ethylamino]-2-fluoro-phenyl}-5,5-difluoro-4-methyl-5,6-dihydro-4H-[1,3]oxazin-2-ylamine], the figure is 1.23 µM; as for `CC1(C)OC(N)=N[C@](C)(c2cc(Nc3ccccc3C(F)(F)F)ccc2F)C1(F)F` [Example 46, (R)-5,5-Difluoro-4-[2-fluoro-5-(2-trifluoromethyl-phenylamino)-phenyl]-4,6,6-trimethyl-5,6-dihydro-4H-[1,3]oxazin-2-ylamine], 6.92 µM; as for `Cc1cc(C(C)Nc2ccc(F)c([C@@]3(C)N=C(N)OCC3(F)F)c2)[nH]n1` (mixture of isomers) [Example 17, (R)-5,5-Difluoro-4-{2-fluoro-5-[(RS)-1-(5-methyl-2H-pyrazol-3-yl)-ethylamino]-phenyl}-4-methyl-5,6-dihydro-4H-[1,3]oxazin-2-ylamine], 0.43 µM.
With `Cc1cnn(-c2ccc(F)c([C@@]3(C)N=C(N)OC[C@@H]3F)c2)c1` [Example 11, (4R,5R)-5-Fluoro-4-[2-fluoro-5-(4-methyl-pyrazol-1-yl)-phenyl]-4-methyl-5,6-dihydro-4H-[1,3]oxazin-2-ylamine] the figure was 1.3 µM.
As to `C[C@]1(c2cc(-c3cncc(C#N)c3)ccc2F)N=C(N)OC[C@@H]1F` [Example 9, 5-[3-((4R,5R)-2-Amino-5-fluoro-4-methyl-5,6-dihydro-4H-[1,3]oxazin-4-yl)-4-fluoro-phenyl]-nicotinonitrile], the IC50 stood at 0.19 µM.
With `Cc1ccccc1Nc1ccc(F)c([C@@]2(C)N=C(N)OC(C)(C)C2(F)F)c1` [Example 45, (R)-5,5-Difluoro-4-(2-fluoro-5-o-tolylamino-phenyl)-4,6,6-trimethyl-5,6-dihydro-4H-[1,3]oxazin-2-ylamine] the figure was 2.92 µM.
For the compound `C[C@]1(c2cc(-c3cnn(-c4ccc(F)cc4)c3)ccc2F)N=C(N)OCC1(F)F` [Example 31, (R)-5,5-Difluoro-4-{2-fluoro-5-[1-(4-fluoro-phenyl)-1H-pyrazol-4-yl]-phenyl}-4-methyl-5,6-dihydro-4H-[1,3]oxazin-2-ylamine], the half-maximal inhibitory concentration (IC50) turned out to be 8.44 µM.
Take `COc1ccc(Cc2cc3cc(F)c([C@@]4(C)N=C(N)OCC4(F)F)cc3[nH]2)cc1` [Example 39, (R)-5,5-Difluoro-4-[5-fluoro-2-(4-methoxy-benzyl)-1H-indol-6-yl]-4-methyl-5,6-dihydro-4H-[1,3]oxazin-2-ylamine]: the half-inhibitory concentration (IC50) stood at 5.67 µM.

Values taken from patent US8785436B2, “1,3-oxazines as BACE 1 and/or BACE2 inhibitors” (Hoffmann-La Roche Inc., priority 2011, dated 2014).
